From US20230416225A1, “DIAMINOPYRIMIDINE CARBOXAMIDE INHIBITORS OF HPK1” (MERCK SHARP & DOHME LLC, priority 2020, published 2023)

Biological target: T1, Human HPK1, catalytic domain (Homo sapiens, UniProt Q92918)
T1 construct: purchased Carna
T1 sequence (Q92918 1-346): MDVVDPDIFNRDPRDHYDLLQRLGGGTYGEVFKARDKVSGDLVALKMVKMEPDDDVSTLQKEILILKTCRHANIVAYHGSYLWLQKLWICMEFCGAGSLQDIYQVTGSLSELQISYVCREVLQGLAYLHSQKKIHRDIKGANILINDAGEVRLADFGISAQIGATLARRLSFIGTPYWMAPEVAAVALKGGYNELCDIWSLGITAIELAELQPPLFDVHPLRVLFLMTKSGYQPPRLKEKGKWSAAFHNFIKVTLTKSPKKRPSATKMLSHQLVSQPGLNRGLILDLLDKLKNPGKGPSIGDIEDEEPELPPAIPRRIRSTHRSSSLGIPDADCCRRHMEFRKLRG
Assay: HPK1-SLP76 TR-FRET assay
Type: biochemical
Settings: 75 pM HPK1, 10 uM ATP, 10 nM SLP76, 30 min compound pre-incubation

`COc1cc2c(cc1Nc1ncc(C(N)=O)c(Nc3ccccc3Br)n1)CN(S(=O)(=O)C1CC1)CC2` [Example 10-8, 4-[(2-bromophenyl)amino]-2-{[2-(cyclopropylsulfonyl)-6-methoxy-1,2,3,4-tetrahydroisoquinolin-7-yl]amino}pyrimidine-5-carboxamide] was tested. Which IC50 did it give?
Its IC50 is 845 nM.

Which IC50 does the source give for `COc1cc(C(=O)N2CCN(C)CC2)ccc1Nc1ncc(C(N)=O)c(Nc2ccccc2C(F)(F)F)n1` [Example 11-1, 2-((2-methoxy-4-(4-methylpiperazine-1-carbonyl)phenyl)amino)-4-((2-(trifluoromethyl)phenyl)amino)pyrimidine-5-carboxamide] here?
The IC50 was 869 nM.

`COc1cc(C(=O)N2CCC(N(C)C)C2)ccc1Nc1ncc(C(N)=O)c(Nc2ccccc2C(F)(F)F)n1` (stereo not shown) [Example 11-2, 2-((4-(3-(dimethylamino)pyrrolidine-1-carbonyl)-2-methoxyphenyl)amino)-4-((2-(trifluoromethyl)phenyl)amino)pyrimidine-5-carboxamide] was tested. Which IC50 did it give?
The IC50 was 199 nM.

With `COCCOCCOCC(=O)N1CCc2cc(OC)c(Nc3ncc(C(N)=O)c(Nc4ccccc4Br)n3)cc2C1` [Example 12-1, 4-[(2-bromophenyl)amino]-2-[(6-methoxy-2-{[2-(2-methoxyethoxy)ethoxy)accetyl}-1,2,3,4-tetrahydroisoquinolin-7-yl)amino]pyrimidine-5-carboxamide] as the compound, how does the IC50 read?
The IC50 was 117 nM.

`COc1cc2c(cc1Nc1ncc(C(N)=O)c(Nc3ccccc3Br)n1)CN(C(C)=O)CC2` [Example 12-2, 2-[(2-acetyl-6-methoxy-1,2,3,4-tetrahydroisoquinolin-7-yl)amino]-4-[(2-bromophenyl)amino]pyrimidine-5-carboxamide] was tested. Which IC50 did it give?
The IC50 was 244 nM.

Which IC50 does the source give for `COc1cc2c(cc1Nc1ncc(C(N)=O)c(Nc3ccccc3Br)n1)CN(C(=O)C(C)C)CC2` [Example 12-3, 4-[(2-bromophenyl)amino]-2-{[6-methoxy-2-(2-methylpropanoyl)-1,2,3,4-tetrahydroisoquinolin-7-yl]amino}pyrimidine-5-carboxamide] here?
Its IC50 is 598 nM.

With `COCCC(=O)N1CCc2cc(OC)c(Nc3ncc(C(N)=O)c(Nc4ccccc4Br)n3)cc2C1` [Example 12-4, 4-[(2-bromophenyl)amino]-2-{[6-methoxy-2-(3-methoxypropanoyl)-1,2,3,4-tetrahydroisoquinolin-7-yl]amino}pyrimidine-5-carboxamide] as the compound, how does the IC50 read?
Its IC50 is 380 nM.

For `COCC(=O)N1CCc2cc(OC)c(Nc3ncc(C(N)=O)c(Nc4ccccc4Br)n3)cc2C1` [Example 12-5, 4-[(2-bromophenyl)amino]-2-{[6-methoxy-2-(methoxyacetyl)-1,2,3,4-tetrahydroisoquinolin-7-yl]amino}pyrimidine-5-carboxamide], which IC50 is on record?
Its IC50 is 112 nM.

For `COc1cc2c(cc1Nc1ncc(C(N)=O)c(Nc3ccccc3Br)n1)CN(C(=O)C1(C(F)(F)F)CCC1)CC2` [Example 12-6, 4-[(2-bromophenyl)amino]-2-({6-methoxy-2-[1-(trifluoromethyl)cyclobutane-1-carbonyl]-1,2,3,4-tetrahydroisoquinolin-7-yl}amino)pyrimidine-5-carboxamide], which IC50 is on record?
The IC50 was 27.7 nM.

How did the IC50 turn out when `COc1cc2c(cc1Nc1ncc(C(N)=O)c(Nc3ccccc3Br)n1)CN(C(=O)C1(N(C)C)CCC1)CC2` [Example 12-7, 4-[(2-bromophenyl)amino]-2-({2-[1-(dimethylamino)cyclobutane-1-carbonyl]-6-methoxy-1,2,3,4-tetrahydroisoquinolin-7-yl}amino)pyrimidine-5-carboxamide] was run?
Its IC50 is 1.96 nM.

With `COc1cc2c(cc1Nc1ncc(C(N)=O)c(Nc3ccccc3Br)n1)CN(C(=O)C1(C)CCC1)CC2` [Example 12-8, 4-[(2-bromophenyl)amino]-2-{[6-methoxy-2-(1-methylcyclobutane-1-carbonyl)-1,2,3,4-tetrahydroisoquinolin-7-yl]amino}pyrimidine-5-carboxamide] as the compound, how does the IC50 read?
The IC50 was 344 nM.

For `COc1cc2c(cc1Nc1ncc(C(N)=O)c(Nc3ccccc3Br)n1)CN(C(=O)C1CCC1)CC2` [Example 12-9, 4-[(2-bromophenyl)amino]-2-{[2-(cyclobutanecarbonyl)-6-methoxy-1,2,3,4-tetrahydroisoquinolin-7-yl]amino}pyrimidine-5-carboxamide], which IC50 is on record?
The IC50 was 172 nM.

How did the IC50 turn out when `COc1cc2c(cc1Nc1ncc(C(N)=O)c(Nc3ccccc3Br)n1)CN(C(=O)C1CCC1(F)F)CC2` (stereo not shown) [Example 12-10, 4-[(2-bromophenyl)amino]-2-{[2-(2,2-difluorocyclobutane-1-carbonyl)-6-methoxy-1,2,3,4-tetrahydroisoquinolin-7-yl]amino}pyrimidine-5-carboxamide] was run?
Its IC50 is 186 nM.

How did the IC50 turn out when `COc1cc2c(cc1Nc1ncc(C(N)=O)c(Nc3ccccc3Br)n1)CN(C(=O)CC(F)(F)F)CC2` [Example 12-11, 4-[(2-bromophenyl)amino]-2-{[6-methoxy-2-(3,3,3-trifluoropropanoyl)-1,2,3,4-tetrahydroisoquinolin-7-yl]amino}pyrimidine-5-carboxamide] was run?
Its IC50 is 11.1 nM.

For `COC(=O)N1CCc2cc(OC)c(Nc3ncc(C(N)=O)c(Nc4ccccc4Br)n3)cc2C1` [Example 12-12, methyl 7-({4-[(2-bromophenyl)amino]-5-carbamoylpyrimidin-2-yl}amino)-6-methoxy-3,4-dihydroisoquinoline-2(1H)-carboxylate], which IC50 is on record?
Its IC50 is 284 nM.

With `COc1cc2c(cc1Nc1ncc(C(N)=O)c(Nc3ccccc3C3CCCCC3)n1)CN(C)CC2` [Example 13-1, 4-[(2-cyclohexylphenyl)amino]-2-[(6-methoxy-2-methyl-1,2,3,4-tetrahydroisoquinolin-7-yl)amino]pyrimidine-5-carboxamide] as the compound, how does the IC50 read?
The IC50 was 5.83 nM.

For `COc1cc2c(cc1Nc1ncc(C(N)=O)c(Nc3ccccc3CC3CCOCC3)n1)CN(C)CC2` [Example 13-2, 2-[(6-methoxy-2-methyl-1,2,3,4-tetrahydroisoquinolin-7-yl)amino]-4-({2-[(oxan-4-yl)methyl]phenyl}amino)pyrimidine-5-carboxamide], which IC50 is on record?
The IC50 was 0.92 nM.

How did the IC50 turn out when `COc1cc2c(cc1Nc1ncc(C(N)=O)c(Nc3ccccc3Cc3ccccc3)n1)CN(C)CC2` [Example 13-3, 4-[(2-benzylphenyl)amino]-2-[(6-methoxy-2-methyl-1,2,3,4-tetrahydroisoquinolin-7-yl)amino]pyrimidine-5-carboxamide] was run?
The IC50 was 30.6 nM.

`COc1cc2c(cc1Nc1ncc(C(N)=O)c(Nc3ccccc3CC3(F)COC3)n1)CN(C)CC2` [Example 13-4, 4-({2-[(3-fluorooxetan-3-yl)methyl]phenyl}amino)-2-[(6-methoxy-2-methyl-1,2,3,4-tetrahydroisoquinolin-7-yl)amino]pyrimidine-5-carboxamide] was tested. Which IC50 did it give?
The IC50 was 0.66 nM.

How did the IC50 turn out when `CC[C@H](C)Cc1ccccc1Nc1nc(Nc2cc3c(cc2OC)CCN(C)C3)ncc1C(N)=O` [Example 13-6, 2-[(6-methoxy-2-methyl-1,2,3,4-tetrahydroisoquinolin-7-yl)amino]-4-({2-[(2S)-2-methylbutyl]phenyl}amino)pyrimidine-5-carboxamide] was run?
Its IC50 is 597 nM.

`COc1cc2c(cc1Nc1ncc(C(N)=O)c(Nc3ccccc3CC(C)c3ccccc3)n1)CN(C)CC2` (stereo not shown) [Example 13-7, 2-[(6-methoxy-2-methyl-1,2,3,4-tetrahydroisoquinolin-7-yl)amino]-4-{[2-(2-phenylpropyl)phenyl]amino}pyrimidine-5-carboxamide] was tested. Which IC50 did it give?
Its IC50 is 215 nM.

For `COc1cc2c(cc1Nc1ncc(C(N)=O)c(Nc3ccccc3CC3(C#N)CC3)n1)CN(C)CC2` [Example 13-8, 4-({2-[(1-cyanocyclopropyl)methyl]phenyl}amino)-2-[(6-methoxy-2-methyl-1,2,3,4-tetrahydroisoquinolin-7-yl)amino]pyrimidine-5-carboxamide], which IC50 is on record?
The IC50 was 230 nM.

For `COc1cc2c(cc1Nc1ncc(C(N)=O)c(Nc3ccccc3C[C@H](O)c3ccccc3)n1)CN(C)CC2` [Example 13-9, 4-({2-[(2S)-2-hydroxy-2-phenylethyl]phenyl}amino)-2-[(6-methoxy-2-methyl-1,2,3,4-tetrahydroisoquinolin-7-yl)amino]pyrimidine-5-carboxamide], which IC50 is on record?
Its IC50 is 312 nM.

How did the IC50 turn out when `COc1cc2c(cc1Nc1ncc(C(N)=O)c(Nc3ccccc3C[C@@H](O)c3ccccc3)n1)CN(C)CC2` [Example 13-10, 4-({2-[(2R)-2-hydroxy-2-phenylethyl]phenyl}amino)-2-[(6-methoxy-2-methyl-1,2,3,4-tetrahydroisoquinolin-7-yl)amino]pyrimidine-5-carboxamide] was run?
Its IC50 is 326 nM.

Which IC50 does the source give for `COc1cc2c(cc1Nc1ncc(C(N)=O)c(Nc3ccccc3CC3(C#N)CCC3)n1)CN(C)CC2` [Example 13-11, 4-({2-[(1-cyanocyclobutyl)methyl]phenyl}amino)-2-[(6-methoxy-2-methyl-1,2,3,4-tetrahydroisoquinolin-7-yl)amino]pyrimidine-5-carboxamide] here?
Its IC50 is 0.4 nM.

`COc1cc2c(cc1Nc1ncc(C(N)=O)c(Nc3c(F)cccc3C3CCOCC3)n1)CN(C)CC2` [Example 13-12, 4-{[2-fluoro-6-(oxan-4-yl)phenyl]amino}-2-[(6-methoxy-2-methyl-1,2,3,4-tetrahydroisoquinolin-7-yl)amino]pyrimidine-5-carboxamide] was tested. Which IC50 did it give?
Its IC50 is 0.12 nM.

Which IC50 does the source give for `COc1cc2c(cc1Nc1ncc(C(N)=O)c(Nc3ccccc3C3CCOCC3)n1)CN(C)CC2` [Example 13-13, 2-[(6-methoxy-2-methyl-1,2,3,4-tetrahydroisoquinolin-7-yl)amino]-4-{[2-(oxan-4-yl)phenyl]amino}pyrimidine-5-carboxamide] here?
The IC50 was 1.09 nM.

For `COc1cc2c(cc1Nc1ncc(C(N)=O)c(Nc3ccccc3-c3cncs3)n1)CN(C)CC2` [Example 14-1, 2-[(6-methoxy-2-methyl-1,2,3,4-tetrahydroisoquinolin-7-yl)amino]-4-{[2-(1,3-thiazol-5-yl)phenyl]amino}pyrimidine-5-carboxamide], which IC50 is on record?
Its IC50 is 2.75 nM.
